Reference: patent US12043625B2, “Pyridine derivatives with c-linked cyclic substituents as cGAS inhibitors” (BOEHRINGER INGELHEIM INTERNATIONAL GMBH, priority 2021, dated 2024)

Experiments:
[1] = tested on: IFN induction in dsDNA-stimulated human whole blood; assay: Human whole blood assay, dsDNA transfection, IFNα2a production (hWB IC50); type: cell-based;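 further: cGAS pathway activity, IFNα2a in plasma by MSD immunoassay after 22 h at 37 °C, 8 concentrations up to 10 µM in 0.1% DMSO, DMSO controls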
Procedure: For the detection of cellular cGAS activity human whole blood was stimulated by transfection with double stranded DNA. Pathway activity was monitored by measuring the IFNα2α production.
Typically, 8 concentrations were used with the highest concentration at 10 μM in the final assay volume followed by ˜1:5 dilution steps. DMSO concentration was set to 0.1% in the final assay volume. The 96-well assay plate contained 10 test compounds, and DMSO in control wells.
Whole blood was kept at room temperature for a maximum of 3 hours after collection until use in the assay.
160 μl of the whole blood samples was transferred to each well of the 96-well assay plates filled with compound/OptiMEM. All assay plates were prepared as duplicates with blood from different donors. Blood plates were kept at room temperature for 60 minutes and continuous shaking with 450 rpm, covered with the lid, but not sealed.
20 μl OptiMEM and 9.6:1 Fugene was added to all low control wells.
After covering assay plates with aera seals and the lid, blood plates were kept at room temperature for 30 minutes and continuous shaking with 450 rpm, followed by an overnight incubation of 22 h at 37° C. in the incubator, without shaking.
U-Plex MSD GOLD 96-well Small Spot Strepavidin SECTOR Plates (Meso Scale Diagnostics #L45SA-5) were coated with 25 μl diluted capture antibody. Coated plates were incubated for 60 min at room temperature under continuous shaking at 700 rpm. MSD IFNα-2a plates were washed three times with 150 μl wash buffer (1×HBSS, 0.05% Tween).
After blocking the plates with 100 μl block solution/well (1×HBSS with 0.2% Tween, 2% BSA) for 60 min at room temperature and continuous shaking at 700 rpm, plates were emptied as dry as possible by dumping just before continuing with the human plasma.
Whole Blood assay plates were centrifuged at 1600 rpm for 10 minutes. 25 μl of supernatant was transferred with a pipetting robot from each whole blood plate to the corresponding IFNα-2a plate.
Plates were sealed with microplate seals and kept at room temperature again under continuous shaking at 700 rpm for two hours.
Next MSD IFNα-2a plates were washed three times with 150 μl wash buffer (1×HBSS, 0.05% Tween), before adding 25 μl MSD SULFO-TAG IFNα-2a Antibody solution (1:100 diluted in Diluent 3 (Meso Scale Diagnostics #R50AP-2) to each well of the plates.
Afterwards plates were sealed with microplate seals and kept at room temperature again under continuous shaking at 700 rpm for two hours. Finally, MSD IFNα-2α plates were washed three times with 150 μl wash buffer (1×HBSS, 0.05% Tween). 150 μl 2× Read buffer was added to each well and plates were immediately measured with the MSD Sector S600 Reader using the vendor barcode.
For data evaluation and calculation, % control calculation of each well was based on the mean of high (DNA stimulated control) and mean of low (unstimulated control) controls by using the following formula: [counts(sample)−counts(low))/(counts(high)−counts(low))]*100
The IC50 values were calculated using the standard 4 parameter logistic regression formula. Calculation: [y=(a−d)/(1+(x/c)^b)+d], a=low value, d=high value; x=conc M; c=1C50 M; b=slope

[2] = tested on: IFN induction in cGAMP-stimulated THP1 cells; assay: cGAMP stimulated counter cell assay, THP1-Dual cells, Lucia luciferase reporter (THP1(cGAMP) IC50); type: cell-based; settings: Homo sapiens, THP-1, THP1-Dual cells stimulated with 10 μM cGAMP;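 further: IRF-driven Lucia luciferase luminescence after 18 h at 37° C, compound series topping at 10 µM with 1% DMSO, unstimulated wells as 0% and DMSO wells as 100%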
Source text: 6.2 Method: Human cGAS Cell Assay and cGAMP Stimulated Counter Cell Assay (THP1(vir) IC50 and THP1(cGAMP) IC50)
THP1-Dual™ cells (InvivoGen #thpd-nfis) expressing IRF dependent Lucia luciferase reporter were used as basis for both assays.
(§1) For the counter assay, cells were stimulated by cGAMP (SigmaAldrich #SML1232) to activate the identical pathway independent and directly downstream of cGAS (measurement of THP1(cAMP) IC50). Pathway activity was monitored by measuring the Lucia luciferase activity induced by either DNA stimulated cGAS enzyme activity (measurement of THP1^(vir) IC50) or by cGAMP directly (measurement of THP1(cAMP) IC50, counter assay).
Compounds were delivered in 10 mM DMSO solution, serially diluted and transferred to the 384 well assay plate (Greiner #781201) using an Echo acoustic dispenser. Typically, 8 concentrations were used with the highest concentration at 10 μM in the final assay volume followed by ˜1:5 dilution steps. DMSO concentration was set to 1% in the final assay volume. The 384 well assay plate contained 21 test compounds (column 1-22), and DMSO in column 23 and 24.
(§2) 30 μL of the cell/virus-mix were added to each well of the compound plate from column 1-23 via MultiDrop Combi dispenser (5000 cells/well). In column 24, 30 μl/5000 cells/well without virus were added as a low control.
(§3) The plates were then incubated for 18 h at 37° C. in a humidified incubator.
(§4) Following that, 15 μL of QuantiLuc detection reagent (InvivoGen #rep-qlcg5) were added to each well using a MultiDrop Combi. Measurement was done immediately after the addition using an EnVision reader (US-luminescence read-mode).
Data Evaluation and Calculation:
(§5) For data evaluation and calculation, the measurement of the low control was set as 0% control and the measurement of the high control was set as 100% control. The IC50 values were calculated using the standard 4 parameter logistic regression formula. Calculation: [y=(a−d)/(1+(x/c)^b)+d], a=low value, d=high value; x=conc M; c=1C50 M; b=slope

[3] = tested on: IFN induction in virus-stimulated THP1 cells; assay: Human cGAS cell assay, baculovirus-stimulated THP1-Dual cells, Lucia luciferase reporter (THP1(vir) IC50); type: cell-based; settings: for IC50: Homo sapiens, THP-1, baculovirus-stimulated THP1-Dual cells, 18 h; for Ratio THP(cGAMP) IC50/THP(vir) IC50: selectivity for cGAS inhibition;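 on all read-outs here: IRF-dependent luminescence, 8 concentrations up to 10 µM in 1% DMSO, 0% = unstimulated cells, 100% = DMSO plus virus, counter assay stimulated with cGAMP downstream of cGAS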
Source text: THP1-Dual™ cells (InvivoGen #thpd-nfis) expressing IRF dependent Lucia luciferase reporter were used as basis for both assays. For the detection of cellular cGAS activity cells were stimulated by a baculovirus (pFastbac-1, Invitrogen, no coding insert) infection that delivers the cGAS enzyme stimulating double-stranded DNA (measurement of THP1(vir) IC50).
as §1
Typically, 8 concentrations were used with the highest concentration at 10 μM in the final assay volume followed by ˜1:5 dilution steps. DMSO concentration was set to 1% in the final assay volume. The 384 well assay plate contained 21 test compounds (column 1-22), and DMSO in column 23 and 24.
The baculovirus solution was then added 1:200 (may have varied according to virus batch) to the cells (measurement of THP1(vir) IC50).
as §2, §3, §4
Data Evaluation and Calculation:
as §5

Human cGAS = Human cGAS (Homo sapiens (Human), UniProt Q8N884); assay: Human cGAS enzyme assay (hcGAS IC50, in vitro), cGAMP formation by RapidFire MS; type: biochemical; settings: 45 bp dsDNA, GTP/ATP;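 further: compounds preincubated 60 min, then GTP and ATP (30 µM each) added for 90 min at room temperature, cGAMP read relative to cyclic-di-GMP internal standard, no-enzyme/DNA wells as 0%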
Chain of Human cGAS (Q8N884 whole entry): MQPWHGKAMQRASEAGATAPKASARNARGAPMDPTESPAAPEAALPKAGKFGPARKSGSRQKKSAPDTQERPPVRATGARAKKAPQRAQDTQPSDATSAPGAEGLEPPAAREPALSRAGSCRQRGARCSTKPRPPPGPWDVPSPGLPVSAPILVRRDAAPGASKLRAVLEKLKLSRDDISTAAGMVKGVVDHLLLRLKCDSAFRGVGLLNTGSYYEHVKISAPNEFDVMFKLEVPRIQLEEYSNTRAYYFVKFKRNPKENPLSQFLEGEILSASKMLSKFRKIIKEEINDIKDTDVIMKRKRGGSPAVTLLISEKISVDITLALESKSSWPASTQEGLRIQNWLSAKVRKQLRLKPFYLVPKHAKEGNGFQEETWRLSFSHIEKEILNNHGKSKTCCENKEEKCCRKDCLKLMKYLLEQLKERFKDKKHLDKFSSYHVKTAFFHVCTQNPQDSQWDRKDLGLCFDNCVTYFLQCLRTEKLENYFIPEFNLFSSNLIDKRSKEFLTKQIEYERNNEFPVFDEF

Compound	IC50 [1] [nM]	IC50 [2] [nM]	IC50 [3] [nM]	Ratio THP(cGAMP) IC50/THP(vir) IC50 [3]	IC50 (Human cGAS) [nM]
C[C@H]1COCC[C@]1(F)c1cc(Br)cnc1O[C@H]1C[C@@H](C(=O)O)N(c2nc(C(F)F)nc3c2oc2ccccc23)C1 [Example 2.16]	325	> 16600	125	133	4
O=C(O)[C@@H]1C[C@H](Oc2ncc(Cl)cc2C2(F)CCS(=O)(=O)CC2)CN1c1nc(C(F)(F)F)nc2c1oc1ccccc12 [Example 2.02]	89	> 16600	540	>31	4
C[C@H]1CS(=O)(=O)C(C)(C)C[C@@]1(F)c1cc(Cl)cnc1O[C@H]1C[C@@H](C(=O)O)N(c2nc(C(F)(F)F)nc3c2oc2ccccc23)C1 [Example 1.07]	213	3680	216	17	69
CC(=O)N1CC[C@](F)(c2cc(-c3cccc(N(C)C)c3)cnc2O[C@H]2C[C@@H](C(=O)O)N(c3nc(C(F)F)nc4c3oc3ccccc34)C2)[C@@H](C)C1 [Example 3.04]	46	10500	16	650	29
COc1cc(-c2cnc(O[C@H]3C[C@@H](C(=O)O)N(c4nc(C(F)F)nc5c4oc4ccccc45)C3)c([C@@]3(F)CCN(C(C)=O)C[C@@H]3C)c2)c(F)cn1 [Example 3.03]	53	10400	18	568	12
O=C(O)[C@@H]1C[C@H](Oc2ncc(Cl)cc2[C@@]2(F)CCN3C(=O)OC[C@H]3C2)CN1c1nc(C(F)F)nc2c1oc1ccccc12 [Example 2.13]	582	> 16600	818	>20	7
CNc1cc(-c2cnc(O[C@H]3C[C@@H](C(=O)O)N(c4nc(C(F)F)nc5c4oc4ccccc45)C3)c([C@@]3(F)CCOC[C@@H]3C)c2)ccn1 [Example 3.02]	53	4710	23	201	2
C#Cc1cnc(O[C@H]2C[C@@H](C(=O)O)N(c3nc(C(F)F)nc4c3oc3ccccc34)C2)c([C@]2(F)CCS(=O)(=O)C[C@H]2C)c1 [Example 2.14]	124	7760	248	31	5
O=C(O)[C@@H]1C[C@H](Oc2ncc(Br)cc2C2(F)CCS(=O)(=O)CC2)CN1c1nc(C(F)F)nc2c1oc1ccccc12 [Example 2.04]	115	> 16600	638	>26	5
C#Cc1cnc(O[C@H]2C[C@@H](C(=O)O)N(c3nc(C(F)(F)F)nc4c3oc3ccccc34)C2)c([C@]2(F)CCS(=O)(=O)C(C)(C)C2)c1 [Example 1.14]	53	5280	42	127	9
C#Cc1cnc(O[C@H]2C[C@@H](C(=O)O)N(c3nc(C(F)(F)F)nc4c3oc3ccccc34)C2)c([C@@]2(F)CCN(C(C)=O)C[C@@H]2C)c1 [Example 2.19]	57	9960	23	435	5
C[C@H]1COCC[C@]1(F)c1cc(-c2cccc(N(C)C)c2)cnc1O[C@H]1C[C@@H](C(=O)O)N(c2nc(C(F)F)nc3c2oc2ccccc23)C1 [Example 6.04]	75	7680	21	371	17
O=C(O)[C@@H]1C[C@H](Oc2ncc(Cl)cc2[C@]2(F)CCS(=O)(=O)C3(CC3)C2)CN1c1nc(C(F)F)nc2c1oc1ccccc12 [Example 1.17]	45	22100	54	412	3
C#Cc1cnc(O[C@H]2C[C@@H](C(=O)O)N(c3nc(C(F)F)nc4c3oc3ccccc34)C2)c([C@]2(F)CC(C)(C)S(=O)(=O)C[C@@H]2C)c1 [Example 1.10]	70	2240	82	28	40
Cc1nc(N2CCC[C@H]2C(=O)O)c2oc3ccccc3c2n1 [Example 15, reference compound]	–	> 17000	> 17000	–	–
C#Cc1cnc(O[C@H]2C[C@@H](C(=O)OC)N(c3nc(C(F)(F)F)nc4c3oc3ccccc34)C2)c([C@@]2(F)CCS(=O)(=O)C[C@@H]2C)c1 [Example P01]	67	> 16600	11	–	19100

Compound	IC50 [1] [nM]	IC50 [2] [nM]	IC50 [3] [nM]	Ratio THP(cGAMP) IC50/THP(vir) IC50 [3]	IC50 (Human cGAS) [nM]
CC#Cc1cnc(O[C@H]2C[C@@H](C(=O)O)N(c3nc(C(F)F)nc4c3oc3ccccc34)C2)c([C@@]2(F)CCN(C(C)=O)C[C@@H]2C)c1 [Example 2.18]	97	12600	59	215	13
C#Cc1cnc(O[C@H]2C[C@@H](C(=O)O)N(c3nc(C(F)F)nc4c3oc3ccccc34)C2)c([C@@]2(F)CC(C)(C)S(=O)(=O)C[C@@H]2C)c1 [Example 1.09]	4	15800	< 5	>2935	4
Cc1nc(N2C[C@@H](Nc3ccncc3)C[C@H]2C(=O)O)c2oc3ccccc3c2n1 [Example 38, reference compound]	> 9990	> 17000	> 17000	–	–
O=C(O)[C@@H]1C[C@H](Oc2ncc(Cl)cc2[C@]2(F)CCOC[C@@H]2C(F)(F)F)CN1c1nc(C(F)F)nc2c1oc1ccccc12 [Example 1.25]	502	13500	712	19	10
O=C(O)[C@@H]1C[C@H](Oc2ncc(Cl)cc2[C@@]2(F)CCS(=O)(=O)C3(CC3)C2)CN1c1nc(C(F)F)nc2c1oc1ccccc12 [Example 1.18]	287	10900	535	20	9
C[C@H]1CS(=O)(=O)CC[C@]1(F)c1cc(Cl)cnc1O[C@H]1C[C@@H](C(=O)O)N(c2nc(C(F)F)nc3c2oc2ccccc23)C1 [Example 1.13]	6	22500	6	–	2
C#Cc1cnc(O[C@H]2C[C@@H](C(=O)O)N(c3nc(C(F)(F)F)nc4c3oc3ccccc34)C2)c([C@@]2(F)CCS(=O)(=O)C[C@@H]2C)c1 [Example 2.12]	8	21800	8	2619	3
C#Cc1cnc(O[C@H]2C[C@@H](C(=O)O)N(c3nc(C(F)F)nc4c3oc3ccccc34)C2)c([C@]2(F)CCOC[C@@H]2C)c1 [Example 1.03]	137	> 16600	283	>59	2
CC1(C)C[C@](F)(c2cc(Cl)cnc2O[C@H]2C[C@@H](C(=O)O)N(c3nc(C(F)(F)F)nc4c3oc3ccccc34)C2)CCS1(=O)=O [Example 2.09]	90	5490	168	33	11
C[C@H]1CN(C(N)=O)CC[C@]1(F)c1cc(Cl)cnc1O[C@H]1C[C@@H](C(=O)O)N(c2nc(C(F)F)nc3c2oc2ccccc23)C1 [Example 1.24]	479	21800	248	88	7
CC#Cc1cnc(O[C@H]2C[C@@H](C(=O)O)N(c3nc(C(F)(F)F)nc4c3oc3ccccc34)C2)c([C@@]2(F)CCN(C3COC3)C[C@@H]2C)c1 [Example 2.17]	287	3920	382	10	96
Cc1nc(N2C[C@@H](CC(=O)Nc3ccncc3)C[C@H]2C(=O)O)c2oc3ccccc3c2n1 [Example 28, reference compound]	> 9990	> 17000	> 32000	–	–
C[C@@H]1CS(=O)(=O)CC[C@@]1(F)c1cc(Cl)cnc1O[C@H]1C[C@@H](C(=O)O)N(c2nc(C(F)F)nc3c2oc2ccccc23)C1 [Example 1.12]	–	15300	314	–	9
C[C@H]1COCC[C@]1(O)c1cc(Cl)cnc1O[C@H]1C[C@@H](C(=O)O)N(c2nc(C(F)F)nc3c2oc2ccccc23)C1 [Example 1.01, (2S,4S)-4-({5-Chloro-3-[(3S,4R)-4-hydroxy-3-methyloxan-4-yl]pyridin-2-yl}oxy)-1-[4-(difluoro-methyl)-8-oxa-3,5-diazatricyclo[7.4.0.0^2,7]trideca-1(13),2,4,6,9,11-hexaen-6-yl]pyrrolidine-2-carboxylic acid]	–	> 16600	530	>31	5
O=C(O)[C@@H]1C[C@H](Oc2ncc(Cl)cc2C2(F)CCS(=O)(=O)CC2)CN1c1nc(C(F)F)nc2c1oc1ccccc12 [Example 2.01, (2S,4S)-4-{[5-Chloro-3-(4-fluoro-1,1-dioxo-1-I-6-thian-4-yl)pyridin-2-yl]oxy}-1-[4-(difluoromethyl)-8-oxa-3,5-diazatricyclo[7.4.0.0^2,7]trideca-1(13),2,4,6,9,11-hexaen-6-yl]pyrrolidine-2-carboxylic acid]	–	> 16600	179	>93	3
CC(C)(C(=O)N[C@H]1C[C@@H](C(=O)O)N(c2nc(C(F)(F)F)nc3c2oc2ccccc23)C1)c1cn[nH]c1 [Example 58, reference compound]	> 9980	23000	21000	–	–
